pEC50: −log10 of the molar value. “And” between values parts separate entries of the source, which are not always exact repeats. Equal entries are not always repeated. “Also recorded” adds a separate entry of the source.
Experiments:
Format in all cases: cell-based
[1] = molecular target: T1, DmelOrco WT (Drosophila melanogaster, UniProt Q9VNB5); assay: TEVC recording of VUAA1-induced current, DmelOrco WT in Xenopus oocytes; set-up: VUAA1-induced current, WT: unit not given here; conditions: for VUAA1-induced current, WT: individual oocytes
T1 sequence (Q9VNB5 1-486): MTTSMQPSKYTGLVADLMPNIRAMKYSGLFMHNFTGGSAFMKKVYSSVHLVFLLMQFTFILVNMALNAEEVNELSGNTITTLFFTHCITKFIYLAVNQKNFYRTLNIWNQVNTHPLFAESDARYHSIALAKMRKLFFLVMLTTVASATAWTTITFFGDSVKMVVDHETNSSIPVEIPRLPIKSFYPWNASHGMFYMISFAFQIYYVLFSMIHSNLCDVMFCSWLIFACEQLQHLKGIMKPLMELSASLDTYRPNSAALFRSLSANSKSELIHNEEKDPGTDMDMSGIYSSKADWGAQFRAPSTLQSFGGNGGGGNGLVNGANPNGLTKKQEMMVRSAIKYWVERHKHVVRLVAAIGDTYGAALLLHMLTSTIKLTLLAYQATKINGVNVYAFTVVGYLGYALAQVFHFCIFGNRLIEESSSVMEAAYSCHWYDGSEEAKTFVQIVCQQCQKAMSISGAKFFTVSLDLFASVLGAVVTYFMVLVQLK
Description: (§1) All Orco gene sequences were optimized[63] for protein expression in Xenopus laevis oocytes with the GenSmartTM Codon optimization Tool and subcloned into a pGEMHE-derived vector. The wildtype gene of Drosophila melanogaster Orco (DmelOrco) was synthesized by Genscript and subcloned with XmaI/XhoI cloning sites. Site-directed mutagenesis of DmelOrco was done by PCR with the Q5® site directed mutagenesis kit (NEB) using primers optimized with the NEBase Changer online tool and following the supplier’s protocol. After transformation of commercial competent bacteria (XL10 Gold) by standard heat-shock protocol and overnight culture in ampicillin-containing LB plates, positive clones were identified by electrophoretic restriction profile and external sequencing (Genewiz). DNAs of positive clones were amplified with Qiagen MidiPrep Kit and the ORF was fully sequenced. For in vitro transcription, DNAs were linearized with restriction enzyme NotI that cuts a unique site in the 3′ region of the polyA tail. The linearized DNAs were purified by the standard phenol:chloroform extraction method and transcribed into mRNA using the T7 ultra mMessage mMachine kit (Thermo Fisher Scientific). mRNAs were purified with the NucleoSpin RNA plus XS kit (Machery-Nagel). DNA and RNA were analyzed by agarose-gel electrophoresis and quantified by spectrophotometry.
(§2) Xenopus laevis oocytes were prepared, as previously described. Briefly, oocytes were defolliculated after surgical retrieval by type 1 A collagenase over 2-3 h under smooth horizontal agitation. They were manually selected and incubated at 19 °C in modified-Barth’s solution (1 mM KCl, 0.82 mM MgSO4, 88 mM NaCl, 2.4 mM NaHCO3, 0.41 mM CaCl2, Ca(NO3)2 0.3 mM, 16 mM HEPES, pH 7.4) supplemented with 100 U mL^−1 of penicillin and streptomycin and 0.1 mg mL^−1 of gentamycin. Each oocyte was micro-injected with the Nanoject instrument (Drummond) with 50 nL of 20 ng of mRNA coding for the Orco of interest. Injected oocytes were incubated individually in 96-well plates for 4 days at 19 °C in the same buffer. Different batches of oocytes have been tested per construct. The results of the mutants of interest have been confirmed by a second set of experiments comparing the amplitudes with WT in the same day and from the same batch of oocytes (Supplementary Fig. 11).
(§3) Whole cell currents were recorded with the two-electrode voltage-clamp (TEVC) technique with the HiClamp robot (MultiChannel System). Microelectrodes were filled with 3 M KCl. The high K^+ buffer used for recordings was composed of 91 mM KCl, 1 mM MgCl2, 1.8 mM CaCl2, 5 mM HEPES, pH 7.4. Membrane voltage was clamped to −50 mV and VUAA1 was applied for 60 s. Data were extracted with M. Vivaudou’s programs[65] and statistically analyzed with Prism 8 (Graphpad).

[2] = molecular target: DmelOrco T80A (Drosophila melanogaster, UniProt Q9VNB5, T80A); assay: TEVC recording of VUAA1-induced current, DmelOrco T80A in Xenopus oocytes; set-up: VUAA1-induced current, T80A: unit not given here
Description: as §1, with “The linearized DNAs were purified by the standard phenol:chloroform extraction method and transcribed into mRNA using the T7 ultra mMessage mMachine kit (Thermo Fisher Scientific). mRNAs were purified with the NucleoSpin RNA plus XS kit (Machery-Nagel).” left out, “spectrophotometry. […]” for “spectrophotometry.”
(§4) Whole cell currents were recorded with the two-electrode voltage-clamp (TEVC) technique with the HiClamp robot (MultiChannel System). […] Data were extracted with M. Vivaudou’s programs[65] and statistically analyzed with Prism 8 (Graphpad).

[3] = molecular target: DmelOrco I181A (Drosophila melanogaster, UniProt Q9VNB5, I181A); assay: TEVC recording of VUAA1-induced current, DmelOrco I181A in Xenopus oocytes; set-up: VUAA1-induced current, i181A: unit not given here
Description: as §1, with “The linearized DNAs were purified by the standard phenol:chloroform extraction method and transcribed into mRNA using the T7 ultra mMessage mMachine kit (Thermo Fisher Scientific). mRNAs were purified with the NucleoSpin RNA plus XS kit (Machery-Nagel).” left out, “spectrophotometry. […]” for “spectrophotometry.”
as §4

[4] = molecular target: DmelOrco I181W (Drosophila melanogaster, UniProt Q9VNB5, I181W); assay: TEVC recording of VUAA1-induced current, DmelOrco I181W in Xenopus oocytes; set-up: VUAA1-induced current, i181W: unit not given here
Description: as §1, with “The linearized DNAs were purified by the standard phenol:chloroform extraction method and transcribed into mRNA using the T7 ultra mMessage mMachine kit (Thermo Fisher Scientific). mRNAs were purified with the NucleoSpin RNA plus XS kit (Machery-Nagel).” left out, “spectrophotometry. […]” for “spectrophotometry.”
as §4

[5] = molecular target: DmelOrco F84W (Drosophila melanogaster, UniProt Q9VNB5, F84W); assay: TEVC recording of VUAA1-induced current, DmelOrco F84W in Xenopus oocytes; conditions: 500 µM VUAA1, TEVC
Description: as §1, with “The linearized DNAs were purified by the standard phenol:chloroform extraction method and transcribed into mRNA using the T7 ultra mMessage mMachine kit (Thermo Fisher Scientific). mRNAs were purified with the NucleoSpin RNA plus XS kit (Machery-Nagel).” left out, “spectrophotometry. […]” for “spectrophotometry.”
as §4

[6] = molecular target: DmelOrco F84A (Drosophila melanogaster, UniProt Q9VNB5, F84A); assay: TEVC recording of VUAA1-induced current, DmelOrco F84A in Xenopus oocytes
Description: as §1
Xenopus laevis oocytes were prepared, as previously described. Briefly, oocytes were defolliculated after surgical retrieval by type 1 A collagenase over 2-3 h under smooth horizontal agitation. They were manually selected and incubated at 19 °C in modified-Barth’s solution (1 mM KCl, 0.82 mM MgSO4, 88 mM NaCl, 2.4 mM NaHCO3, 0.41 mM CaCl2, Ca(NO3)2 0.3 mM, 16 mM HEPES, pH 7.4) supplemented with 100 U mL^−1 of penicillin and streptomycin and 0.1 mg mL^−1 of gentamycin. […]
as §4

[7] = molecular target: DmelOrco Y390S (Drosophila melanogaster, UniProt Q9VNB5, Y390S); assay: TEVC recording of VUAA1-induced current, DmelOrco Y390S in Xenopus oocytes; conditions: 500 µM VUAA1, TEVC
Description: as §1, with “The linearized DNAs were purified by the standard phenol:chloroform extraction method and transcribed into mRNA using the T7 ultra mMessage mMachine kit (Thermo Fisher Scientific). mRNAs were purified with the NucleoSpin RNA plus XS kit (Machery-Nagel).” left out, “spectrophotometry. […]” for “spectrophotometry.”
as §4

[8] = molecular target: DmelOrco S146A (Drosophila melanogaster, UniProt Q9VNB5, S146A); assay: TEVC recording of VUAA1-induced current, DmelOrco S146A in Xenopus oocytes
Description: as §1, with “The linearized DNAs were purified by the standard phenol:chloroform extraction method and transcribed into mRNA using the T7 ultra mMessage mMachine kit (Thermo Fisher Scientific). mRNAs were purified with the NucleoSpin RNA plus XS kit (Machery-Nagel).” left out, “spectrophotometry. […]” for “spectrophotometry.”
as §4

[9] = molecular target: DmelOrco V206W (Drosophila melanogaster, UniProt Q9VNB5, V206W); assay: TEVC recording of VUAA1-induced current, DmelOrco V206W in Xenopus oocytes; set-up: VUAA1-induced current, V206W: unit not given here; conditions: for VUAA1-induced current, V206W: individual oocytes
Description: as §1, §2, §3

[10] = Fig.4i dose-response, VUAA1 10 µM (Log(M) -5)
[11] = Fig.4i dose-response, VUAA1 25 µM (Log(M) -4.6)
[12] = Fig.4i dose-response, VUAA1 50 µM (Log(M) -4.3)
[13] = Fig.4i dose-response, VUAA1 100 µM (Log(M) -4)
[14] = Fig.4i dose-response, VUAA1 500 µM (Log(M) -3.3)

Sequence of DmelOrco I181A (Q9VNB5 whole entry I181A, the tested form may be a part): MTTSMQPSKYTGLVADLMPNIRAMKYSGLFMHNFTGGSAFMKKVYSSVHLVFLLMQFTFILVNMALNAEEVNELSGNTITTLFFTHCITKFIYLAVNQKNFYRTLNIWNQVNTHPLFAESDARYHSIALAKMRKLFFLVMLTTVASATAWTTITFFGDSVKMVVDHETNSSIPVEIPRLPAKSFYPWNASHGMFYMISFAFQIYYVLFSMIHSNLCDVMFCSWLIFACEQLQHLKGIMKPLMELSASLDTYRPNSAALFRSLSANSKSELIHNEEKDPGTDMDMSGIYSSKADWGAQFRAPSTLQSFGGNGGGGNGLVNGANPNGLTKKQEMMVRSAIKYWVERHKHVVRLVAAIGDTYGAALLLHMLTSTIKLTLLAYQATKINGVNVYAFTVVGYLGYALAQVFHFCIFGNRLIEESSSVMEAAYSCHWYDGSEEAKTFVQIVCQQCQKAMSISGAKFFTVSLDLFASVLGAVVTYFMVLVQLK
Sequence of DmelOrco I181W (Q9VNB5 whole entry I181W, the tested form may be a part): as the sequence (Q9VNB5 whole entry I181A, the tested form may be a part) above, with A181W counted along it
Sequence of DmelOrco T80A (Q9VNB5 whole entry T80A, the tested form may be a part): as the sequence (Q9VNB5 whole entry I181A, the tested form may be a part) above, with T80A, A181I counted along it
Sequence of DmelOrco F84A (Q9VNB5 whole entry F84A, the tested form may be a part): as the sequence (Q9VNB5 whole entry I181A, the tested form may be a part) above, with F84A, A181I counted along it
Sequence of DmelOrco V206W (Q9VNB5 whole entry V206W, the tested form may be a part): as the sequence (Q9VNB5 whole entry I181A, the tested form may be a part) above, with A181I, V206W counted along it
Sequence of DmelOrco S146A (Q9VNB5 whole entry S146A, the tested form may be a part): as the sequence (Q9VNB5 whole entry I181A, the tested form may be a part) above, with S146A, A181I counted along it
Sequence of DmelOrco Y390S (Q9VNB5 whole entry Y390S, the tested form may be a part): as the sequence (Q9VNB5 whole entry I181A, the tested form may be a part) above, with A181I, Y390S counted along it
Sequence of DmelOrco F84W (Q9VNB5 whole entry F84W, the tested form may be a part): as the sequence (Q9VNB5 whole entry I181A, the tested form may be a part) above, with F84W, A181I counted along it

**Q.** Which results are given for CCc1ccc(NC(=O)CSc2nnc(-c3cccnc3)n2CC)cc1 [VUAA1, N-(4-ethylphenyl)−2-((4-ethyl-5-(3-pyridinyl)−4H-1,2,4-triazol-3-yl)thio)acetamide]?
**A.** Current induced by VUAA1 (median) ([1]; 500 µM VUAA1, TEVC, WT): 4.71 µA; Current amplitude in the presence of VUAA1 compared with Orcos of other species ([1]; 500 µM VUAA1, TEVC, versus AbakOrco, AalbOrco, CquiOrco): highest current amplitude; VUAA1-induced current, WT ([1]; Fig.4b): 1.7 and 1.54 and 2.24 and 5.84 and 5.68 and 11.97 and 10.02 and 8.3 and 7.33 and 2.12 and 1.87 and 2.7 and 3.73 and 16.35 and 2.15 and 5.7; VUAA1-induced current, WT [1, 10]: 0.03 and 0.04 (2×) and 0.02 and 0.09 and 0.05 and 0.06; VUAA1-induced current, WT [1, 11]: 0.27 and 0.36 and 0.04 (4×) and 0.08 (2×) and 0.03 (3×) and 0.02 and 0.05 (3×) and 0.15 and 0 and 0.09 and 0.12 and 0.07; VUAA1-induced current, WT [1, 12]: 0.58 and 0.72 and 0.4 (2×) and 0.37 and 0.54 and 0.11 and 0.17 and 0.26 (3×) and 0.21 and 0.34 and 0.77 and 1.04 and 1.01 (2×) and 0.78 and 1.15 and 1.23; VUAA1-induced current, WT [1, 13]: 1.33 and 1.71 and 2.65 and 2.17 (2×) and 2.77 and 1.82 and 2.07 and 2.22 and 1.61 and 2.38 and 1.2 and 1.79 and 2.19 and 2.6 and 2.64 (2×) and 1.94 and 2.47 and 2.54; VUAA1-induced current, WT [1, 14]: 3.64 (2×) and 4.55 and 3.85 and 4.63 and 4.01 and 4.3 and 4.47 and 4.77 and 5.33 and 1.53 and 3.97 and 4.65 and 2.65 and 2.64 and 2.78 (2×); pEC50 ([1]; VUAA1 dose-response curve, TEVC, WT): 4.02; Imax ([1]; concentration-effect curve of VUAA1, TEVC, WT): 3.97 µA; Response to VUAA1 compared with WT ([2]; 500 µM VUAA1, TEVC, T80A): did not significantly affect the amplitude of activation; VUAA1-induced current, T80A ([2]; Fig.4b, individual oocytes): 2.4 and 1.22 and 3.78 and 5.59 and 4.73 and 0.91 and 2.46 and 0.65 and 0.56 and 4.38 and 3.16 and 5.8; Response to VUAA1 compared with WT ([3]; 500 µM VUAA1, TEVC, I181A): did not significantly affect the amplitude of activation; VUAA1-induced current, i181A ([3]; Fig.4b, individual oocytes): 2.04 and 7.33 and 5.46 and 2.9 and 2.3 and 1.5 and 5.38 and 11.56 and 4.17 and 3.69; Response to VUAA1 compared with WT ([4]; 500 µM VUAA1, TEVC, I181W): significantly reduced or abolished the activation; also recorded: clear loss of VUAA1 activation; VUAA1-induced current, i181W ([4]; Fig.4b, individual oocytes): 0.52 and 0.99 and 0.9 and 0.42 and 0.27 and 1.33 and 0.95 and 0.29 and 0.18 and 1.75 and 2.06 and 1.1 and 0.66 and 0.22 and 0.14 and 0.54 and 0.08; Response to VUAA1 compared with WT [5]: did not induce a significant change; pEC50 [6]: 3.98; Current induced by VUAA1 (median) ([6]; 500 µM VUAA1, TEVC, F84A): 0.68 µA; Imax ([6]; concentration-effect curve of VUAA1, TEVC, F84A): 1.01 µA; Current induced by VUAA1 (median) [7]: 2.44 µA; Current induced by VUAA1 (median) ([8]; 500 µM VUAA1, TEVC, S146A): 7.55 µA; Effect on VUAA1-induced channel response ([8]; DmelOrco S146A): I; Response to VUAA1 compared with WT ([9]; 500 µM VUAA1, TEVC, V206W): significantly reduced or abolished the activation; also recorded: significant decrease in the response; VUAA1-induced current, V206W ([9]; Fig.4b): 0.24 and 0.29 and 1.03 and 0.65 and 0.59 and 0.7 and 0.64 and 0.44 and 0.27; VUAA1-induced current, V206W [9, 10]: 0.05 and 0.36 and 0.03 and 0.04 (2×) and 0.02 (2×) and 0.01; VUAA1-induced current, V206W [9, 11]: 0.02 (2×) and 0.37 and 0.05 and 0.04 and 0.03 (3×); VUAA1-induced current, V206W [9, 12]: 0.01 and 0.48 and 0.1 and 0.04 (2×) and 0.05 (2×) and 0.03; VUAA1-induced current, V206W [9, 13]: 0.01 and 0.59 and 0.18 and 0.05 and 0.19 and 0 and 0.22 and 0.1; VUAA1-induced current, V206W [9, 14]: 0.07 (2×) and 0.56 and 0.2 and 0.4 and 0.09 and 0.5 and 0.18; VUAA1-induced current, V206W ([9]; Fig.4i dose-response, VUAA1 1000 µM (Log(M) -3)): 0.12 and 0.59 and 0.2 and 0.07 and 0.5 and 0.11 and 0.61 and 0.24; Imax ([9]; concentration-effect curve of VUAA1, TEVC, V206W): 0.33 µA

From publication PMC10713630, “Elucidation of the structural basis for ligand binding and translocation in conserved insect odorant receptor co-receptors” (Nature Communications, 2023)
